The CheMixHub viscosity set

Assay: xn = mol fraction of the nth substance listed

C[C@H](N)C(=O)N[C@@H](C)C(=O)O + O
viscosity [mPa·s], 101 kPa
Details	x1 = 3.87e-05	x1 = 7.58e-05	x1 = 0.000107	x1 = 0.00015	x1 = 0.000172	x1 = 0.0002106	x1 = 0.0002561	x1 = 0.0002871	x1 = 0.0003202	x1 = 0.0003571
305.15 K	0.7669	0.7674	0.7681	0.7688	0.7719	0.7741	0.7782	0.7795	0.7798	0.7828
310.15 K	0.7029	0.7032	0.7033	0.7061	0.7067	0.7084	0.7089	0.7115	0.7139	0.7167
315.15 K	0.6416	0.6452	0.6473	0.6487	0.6499	0.6499	0.6519	0.6548	0.6573	0.6608

C[N+](C)(C)C.[OH-] + O
viscosity [mPa·s], 101 kPa
Details	x1 = 0.00504	x1 = 0.0103	x1 = 0.02149	x1 = 0.0337	x1 = 0.04708	x1 = 0.06181	x1 = 0.07809
298.15 K	0.9677	1.119	1.278	1.627	1.978	3.087	4.216
303.15 K	0.8674	1.007	1.148	1.39	1.751	2.66	3.571
313.15 K	0.7118	0.818	0.9314	1.158	1.399	2.031	2.665
323.15 K	0.5982	0.678	0.7738	0.971	1.148	1.587	2.067

C[N+](C)(C)CCO.O=C([O-])c1ccccn1 + O
300 K, 100 kPa
Details	viscosity [mPa·s]
x2 = 0.5	232.8
x2 = 0.68	35.3
x2 = 0.81	16.4

NCC(=O)NCC(=O)NCC(=O)NCC(=O)O + O
viscosity [mPa·s], 101 kPa
Details	x1 = 9.96e-05	x1 = 0.000119	x1 = 0.0002046	x1 = 0.0002554	x1 = 0.0003681	x1 = 0.0004221	x1 = 0.0005133
298.15 K	0.893	0.894	0.8971	0.8987	0.9022	0.9037	0.9045
308.15 K	0.7219	0.7227	0.7246	0.7261	0.7289	0.7304	0.7337
318.15 K	0.5985	0.5992	0.6011	0.6019	0.6045	0.606	0.6079
